Drawing on ChEMBL document CHEMBL4418300, “Uses of fahd1” (2016), this text covers IC50 for one molecule.

This assay addresses T1, Oxaloacetate tautomerase FAHD1, mitochondrial (Homo sapiens, UniProt Q6P587).
T1 sequence (Q6P587 whole entry): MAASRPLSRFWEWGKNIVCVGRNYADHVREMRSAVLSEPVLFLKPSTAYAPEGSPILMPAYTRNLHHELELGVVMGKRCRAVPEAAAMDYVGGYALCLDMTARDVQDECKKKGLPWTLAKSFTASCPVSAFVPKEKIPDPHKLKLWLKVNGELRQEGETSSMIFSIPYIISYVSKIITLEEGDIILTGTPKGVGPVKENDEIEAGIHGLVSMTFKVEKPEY
The assay can be described thus: Inhibition of wild-type recombinant N-terminal His6 and S-tagged full-length human FAHD1 expressed in Escherichia coli using oxaloacetate as substrate by photometric analysis.

Consider `O=C([O-])C(=O)[O-].[Na+].[Na+]` [SODIUM OXALATE], for which the IC50 is 20 µM.
